Results: patent US20180022780A1, “STABILIZATION ADRENOMEDULLIN DERIVATIVES AND USE THEREOF” (priority 2014, published 2018)
Bridge positions count the residues as written; N and C are the ends. Square brackets hold non-standard residues; d marks the D form. Peptide text beside a SMILES is read from it. * marks the point of attachment. Palmitoyl = CCCCCCCCCCCCCCCC(=O)*; NMeK = CN[C@@H](CCCCN)C(=O)O; Dap = NC[C@H](N)C(=O)O

Target: T1, CLR fused to EYFP and RAMP2 fused to ECFP (Homo sapiens, UniProt O60895+Q16602)
T1 construct: EYFP; ECFP; expressed in transfected cells; host or cells: HEK-293 cells, transient co-transfection
Test: cAMP assay (CRE luciferase reporter, HEK-293 cells transiently co-transfected with CLR and RAMP2)
Assay type: cell-based
Conditions: Table 2, cAMP assay; HEK-293, CLR/RAMP2, CRE luciferase, 3 h stimulation, normalized to [G^14]ADM(14-52)
Summary of the method: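 HEK-293 cells transiently co-transfected with CLR-EYFP, RAMP2-ECFP and a CRE-luc2P luciferase reporter were stimulated with ligands (eight concentrations, triplicate) for 3 h at 37 °C. Luminescence was corrected to 5 µM forskolin, normalized to [G^14]ADM(14-52) standard, and fitted by non-linear regression to dose-response curves.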

T1 sequence (Q16602 23-461): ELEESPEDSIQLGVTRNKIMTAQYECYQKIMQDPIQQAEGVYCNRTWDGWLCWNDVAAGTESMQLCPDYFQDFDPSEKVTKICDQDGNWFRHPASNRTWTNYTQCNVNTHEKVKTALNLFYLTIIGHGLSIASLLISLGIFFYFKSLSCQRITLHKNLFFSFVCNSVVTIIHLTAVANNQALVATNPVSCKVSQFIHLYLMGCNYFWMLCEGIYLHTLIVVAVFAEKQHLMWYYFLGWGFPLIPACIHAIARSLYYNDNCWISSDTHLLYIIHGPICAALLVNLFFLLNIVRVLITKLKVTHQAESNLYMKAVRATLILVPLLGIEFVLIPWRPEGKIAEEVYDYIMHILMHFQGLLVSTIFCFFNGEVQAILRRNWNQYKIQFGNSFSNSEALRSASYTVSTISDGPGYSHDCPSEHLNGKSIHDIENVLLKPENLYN
T1 sequence (O60895 43-175): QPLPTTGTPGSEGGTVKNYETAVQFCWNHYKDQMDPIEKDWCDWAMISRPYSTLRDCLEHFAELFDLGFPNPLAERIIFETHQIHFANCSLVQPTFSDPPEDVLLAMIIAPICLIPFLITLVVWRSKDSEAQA

## CCCCCCCCCCCCCCCC(=O)NCCCC[C@H](N)C(=O)NCC(=O)N[C@H]1CNC(=O)CC[C@@H](C(=O)N[C@H](C(=O)N[C@H](C(=O)N[C@@H](CCC(N)=O)C(=O)N[C@@H](CCCCN)C(=O)N[C@@H](CC(C)C)C(=O)N[C@@H](C)C(=O)N[C@@H](Cc2c[nH]cn2)C(=O)N[C@@H](CCC(N)=O)C(=O)N[C@H](C(=O)N[C@@H](Cc2ccc(O)cc2)C(=O)N[C@@H](CCC(N)=O)C(=O)N[C@@H](Cc2ccccc2)C(=O)N[C@H](C(=O)N[C@@H](CC(=O)O)C(=O)N[C@@H](CCCCN)C(=O)N[C@@H](CC(=O)O)C(=O)N[C@@H](CCCCN)C(=O)N[C@@H](CC(=O)O)C(=O)N[C@@H](CC(N)=O)C(=O)N[C@H](C(=O)N[C@@H](C)C(=O)N2CCC[C@H]2C(=O)N[C@@H](CCCNC(=N)N)C(=O)N[C@@H](CO)C(=O)N(C)[C@@H](CCCCN)C(=O)N[C@H](C(=O)N[C@@H](CO)C(=O)N2CCC[C@H]2C(=O)N[C@@H](CCC(N)=O)C(=O)NCC(=O)N[C@@H](Cc2ccc(O)cc2)C(N)=O)[C@@H](C)CC)C(C)C)[C@@H](C)O)[C@@H](C)CC)C(C)C)[C@@H](C)O)NC(=O)[C@H]([C@@H](C)O)NC(=O)CNC(=O)[C@H](Cc2ccccc2)NC(=O)[C@H](CCCNC(=N)N)NC1=O [Example 27, ((3S,9S,12S,15S,21S)-15-(2-((S)-2-amino-6-palmitamidohexanamido)acetamido)-9-benzyl-12-(3-guanidinopropyl)-3-((R)-1-hydroxyethyl)-2,5,8,11,14,18-hexaoxo-1,4,7,10,13,17-hexaazacyclohenicosane-21-carbonyl)-L-threonyl-[N-Me-K^46]ADM(22-52)] (H-K(Palmitoyl)G[Dap]RFGTETVQKLAHQIYQFTDKDKDNVAPRS[NMeK]ISPQGY-NH2; lactam 3-8)
  EC50: 3.4 nM
